Test results published in patent US20240343704A1, “HALO-SUBSTITUTED AMINO PYRIDINE COMPOUNDS AS INHIBITORS OF THE HAEMATOPOIETIC PROGENITOR KINASE 1 (HPK1)” (priority 2021, published 2024).
Counter-ions that a name gives are not always drawn. Like-named read-outs stand apart in the source and are kept apart here.

Columns and labels:
[1] = target: T1, Recombinant (1-346) HPK1 (h) (Homo sapiens, UniProt Q92918); assay: HPK1 Human STE Kinase Enzymatic Radiometric Assay; assay type: biochemical; details: read-out: HPK1 IC50 nM Range*
T1 construct: Recombinant (1-346) HPK1 (h) is incubated with 8 mM MOPS pH 7.0
T1 sequence (Q92918 1-346): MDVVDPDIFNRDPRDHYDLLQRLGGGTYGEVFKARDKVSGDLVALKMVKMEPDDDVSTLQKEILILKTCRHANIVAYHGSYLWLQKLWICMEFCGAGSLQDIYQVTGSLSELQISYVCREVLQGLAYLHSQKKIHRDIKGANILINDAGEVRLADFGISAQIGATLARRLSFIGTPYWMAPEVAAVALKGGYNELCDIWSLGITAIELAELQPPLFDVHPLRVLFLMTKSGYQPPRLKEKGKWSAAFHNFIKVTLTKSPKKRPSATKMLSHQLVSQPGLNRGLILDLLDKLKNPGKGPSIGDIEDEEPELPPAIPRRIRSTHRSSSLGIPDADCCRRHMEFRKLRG
Experimental: A stock solution of 10 mM of test compound is prepared in DMSO. The compound plate was prepared by 3-fold and 9-point serial dilutions. […] The reaction is initiated by The addition of the Mg/ATP mix. After incubation for 40 minutes at RT, the reaction is stopped by the addition of phosphoric acid to a concentration of 0.5%.

[2] = target: Lck (h) (Homo sapiens, UniProt P06239); assay: Lck Human  Kinase Enzymatic Radiometric Assay; assay type: biochemical
Summary of the method: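 Substrate 33P-incorporation measured by scintillation counting after spotting on P30 filtermat and phosphoric acid washes. Human Lck reacted 40 min at RT in 50 mM Tris pH 7.5 with 10 mM MgAcetate, [gamma-33P]-ATP, 250 uM Cdc2 peptide, 0.1 mM EGTA and 0.1 mM Na3VO4.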

Sequence of Lck (h) (P06239 whole entry): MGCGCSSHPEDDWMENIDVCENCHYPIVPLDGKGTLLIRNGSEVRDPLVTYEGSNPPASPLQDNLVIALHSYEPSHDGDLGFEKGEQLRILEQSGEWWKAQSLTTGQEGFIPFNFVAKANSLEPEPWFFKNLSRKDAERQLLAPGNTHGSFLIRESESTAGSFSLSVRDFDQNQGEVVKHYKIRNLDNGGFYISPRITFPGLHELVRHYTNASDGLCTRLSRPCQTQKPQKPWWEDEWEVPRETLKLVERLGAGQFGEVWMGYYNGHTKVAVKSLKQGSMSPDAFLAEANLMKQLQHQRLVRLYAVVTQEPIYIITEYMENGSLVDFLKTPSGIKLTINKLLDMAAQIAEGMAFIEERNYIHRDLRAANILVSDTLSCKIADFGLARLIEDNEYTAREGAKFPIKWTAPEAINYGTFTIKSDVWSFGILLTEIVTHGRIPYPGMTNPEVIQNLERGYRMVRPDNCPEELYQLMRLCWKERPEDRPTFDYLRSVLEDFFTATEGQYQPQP

Compound: Nc1nc(F)c(-c2ccc(C3CCN(CC4CC4)CC3)cc2)cc1-c1cc2c(cc1F)C(=O)NCC2 [I-242, 6-(2-amino-5-(4-(1-(cyclopropylmethyl)piperidin-4-yl)phenyl)-6-fluoropyridin-3-yl)-7-fluoro-3,4-dihydroisoquinolin-1(2H)-one]
- IC50 [1]: 0.1 to 10 nM
- IC50 ([2]; read-out: Lck IC50 nM Range*): > 1000 nM

Compound: Nc1nc(F)c(-c2ccc(N3CCN(CCC(F)(F)F)CC3)cc2)cc1-c1cc2c(cc1F)C(=O)NCC2 [I-243, 6-(2-amino-6-fluoro-5-(4-(4-(3,3,3-trifluoropropyl)piperazin-1-yl)phenyl)pyridin-3-yl)-7-fluoro-3,4-dihydroisoquinolin-1(2H)-one]
- IC50 [1]: 0.1 to 10 nM
- IC50 ([2]; read-out: Lck IC50 nM Range*): > 1000 nM

Compound: CC(C)N1CCC(c2ccc(-c3cc(-c4cc5c(cc4F)C(=O)NCC5)c(N)nc3F)cc2)CC1 [I-244, 6-(2-amino-6-fluoro-5-(4-(1-isopropylpiperidin-4-yl)phenyl)pyridin-3-yl)-7-fluoro-3,4-dihydroisoquinolin-1(2H)-one]
- IC50 [1]: 0.1 to 10 nM
- IC50 ([2]; read-out: Lck IC50 nM Range*): > 1000 nM

Compound: CCN1CCC(c2ccc(-c3cc(-c4cc5c(cc4F)C(=O)NCC5)c(N)nc3F)cc2)CC1 [I-245, 6-(2-amino-5-(4-(1-ethylpiperidin-4-yl)phenyl)-6-fluoropyridin-3-yl)-7-fluoro-3,4-dihydroisoquinolin-1(2H)-one]
- IC50 [1]: 0.1 to 10 nM
- IC50 ([2]; read-out: Lck IC50 nM Range*): > 1000 nM

Compound: CN1CCN(c2ccc(-c3cc(-c4cc5c(cc4F)C(=O)NCC5)c(N)nc3F)cc2)CC1 [I-246, 6-(2-amino-6-fluoro-5-(4-(4-methylpiperazin-1-yl)phenyl)pyridin-3-yl)-7-fluoro-3,4-dihydroisoquinolin-1(2H)-one]
- IC50 [1]: 0.1 to 10 nM
- IC50 ([2]; read-out: Lck IC50 nM Range*): > 1000 nM

Compound: CN1CCN(c2ccc(-c3cc(-c4cc5c(cc4F)C(=O)NCC5)c(N)nc3F)cc2F)CC1 [I-247, 6-(2-amino-6-fluoro-5-(3-fluoro-4-(4-methylpiperazin-1-yl)phenyl)pyridin-3-yl)-7-fluoro-3,4-dihydroisoquinolin-1(2H)-one]
- IC50 [1]: 0.1 to 10 nM
- IC50 ([2]; read-out: Lck IC50 nM Range*): > 1000 nM

Compound: Nc1nc(F)c(-c2ccc(C3CCN(CC(F)(F)F)CC3)cc2)cc1-c1cc2c(cc1F)C(=O)NCC2 [I-248, 6-(2-amino-6-fluoro-5-(4-(1-(2,2,2-trifluoroethyl)piperidin-4-yl)phenyl)pyridin-3-yl)-7-fluoro-3,4-dihydroisoquinolin-1(2H)-one]
- IC50 [1]: 11 to 100 nM
- IC50 ([2]; read-out: Lck IC50 nM Range*): > 1000 nM

Compound: CN1CCN(c2ccc(-c3cc(-c4cc5c(cc4F)C(=O)NCC5)c(N)nc3F)cc2C(F)(F)F)CC1 [I-249, 6-(2-amino-6-fluoro-5-(4-(4-methylpiperazin-1-yl)-3-(trifluoromethyl)phenyl)pyridin-3-yl)-7-fluoro-3,4-dihydroisoquinolin-1(2H)-one]
- IC50 [1]: 0.1 to 10 nM
- IC50 ([2]; read-out: Lck IC50 nM Range* (number printed instead of a class)): 381 nM

Compound: C[C@@H]1CN(c2cc(F)c(-c3cc(-c4ccc5c(c4)CCNC5=O)c(N)nc3F)cc2[N+](=O)[O-])C[C@H](C)N1C [I-250, 6-(2-amino-6-fluoro-5-(2-fluoro-5-nitro-4-((3R,5S)-3,4,5-trimethylpiperazin-1-yl)phenyl)pyridin-3-yl)-3,4-dihydroisoquinolin-1(2H)-one formate]
- IC50 [1]: 11 to 100 nM
- IC50 ([2]; read-out: Lck IC50 nM Range*): > 1000 nM

Compound: COCCN1CCC(F)(c2ccc(-c3cc(-c4ccc5c(c4)CCNC5=O)c(N)nc3F)cc2)CC1 [I-251, 6-(2-amino-6-fluoro-5-(4-(4-fluoro-1-(2-methoxyethyl)piperidin-4-yl)phenyl)pyridin-3-yl)-3,4-dihydroisoquinolin-1(2H)-one]
- IC50 [1]: 0.1 to 10 nM
- IC50 ([2]; read-out: Lck IC50 nM Range*): > 1000 nM

Compound: CN1CCN(c2ccc(-c3cc(-c4cc5c(cc4F)C(=O)NCC5)c(N)nc3F)c(Cl)c2)CC1 [I-252, 6-(2-amino-5-(2-chloro-4-(4-methylpiperazin-1-yl)phenyl)-6-fluoropyridin-3-yl)-7-fluoro-3,4-dihydroisoquinolin-1(2H)-one]
- IC50 [1]: 0.1 to 10 nM
- IC50 ([2]; read-out: Lck IC50 nM Range*): > 1000 nM

Compound: CN1CCc2cc(-c3cc(-c4ccc5c(c4)CCNC5=O)c(N)nc3F)ccc21 [I-253, 6-(2-amino-6-fluoro-5-(1-methylindolin-5-yl)pyridin-3-yl)-3,4-dihydroisoquinolin-1(2H)-one]
- IC50 [1]: 11 to 100 nM
- IC50 ([2]; read-out: Lck IC50 nM Range*): > 1000 nM

Compound: CN1CCc2cc(-c3cc(-c4ccc5c(c4)CCNC5=O)c(N)nc3F)ccc2C1 [I-254, 6-(2-amino-6-fluoro-5-(2-methyl-1,2,3,4-tetrahydroisoquinolin-6-yl)pyridin-3-yl)-3,4-dihydroisoquinolin-1(2H)-one]
- IC50 [1]: 11 to 100 nM
- IC50 ([2]; read-out: Lck IC50 nM Range*): > 1000 nM

Compound: Nc1nc(F)c(-c2ccc3c(c2)CCNC3)cc1-c1ccc2c(c1)CCNC2=O [I-255, 6-(2-amino-6-fluoro-5-(1,2,3,4-tetrahydroisoquinolin-6-yl)pyridin-3-yl)-3,4-dihydroisoquinolin-1(2H)-one 2,2,2-trifluoroacetate]
- IC50 [1]: 0.1 to 10 nM
- IC50 ([2]; read-out: Lck IC50 nM Range*): > 1000 nM

Compound: Nc1nc(F)c(-c2ccc(C3CCN(CC(F)F)CC3)cc2)cc1-c1cc2c(cc1F)C(=O)NCC2 [I-256, 6-(2-amino-5-(4-(1-(2,2-difluoroethyl)piperidin-4-yl)phenyl)-6-fluoropyridin-3-yl)-7-fluoro-3,4-dihydroisoquinolin-1(2H)-one]
- IC50 [1]: 0.1 to 10 nM
- IC50 ([2]; read-out: Lck IC50 nM Range*): > 1000 nM

Compound: Nc1nc(F)c(-c2ccc(CN3CCOCC3)cc2)cc1-c1ccc2c(c1)CCNC2=O [I-257, 6-(2-amino-6-fluoro-5-(4-(morpholinomethyl)phenyl)pyridin-3-yl)-3,4-dihydroisoquinolin-1(2H)-one]
- IC50 [1]: 11 to 100 nM
- IC50 ([2]; read-out: Lck IC50 nM Range*): > 1000 nM

Compound: CN1CCN(Cc2ccc(-c3cc(-c4ccc5c(c4)CCNC5=O)c(N)nc3F)cc2)CC1 [I-258, 6-(2-amino-6-fluoro-5-(4-((4-methylpiperazin-1-yl)methyl)phenyl)pyridin-3-yl)-3,4-dihydroisoquinolin-1(2H)-one]
- IC50 [1]: 11 to 100 nM
- IC50 ([2]; read-out: Lck IC50 nM Range*): > 1000 nM

Compound: CN1CCN(C(=O)c2ccc(-c3cc(-c4ccc5c(c4)CCNC5=O)c(N)nc3F)cc2)CC1 [I-259, 6-(2-amino-6-fluoro-5-(4-(4-methylpiperazine-1-carbonyl)phenyl)pyridin-3-yl)-3,4-dihydroisoquinolin-1(2H)-one]
- IC50 [1]: 11 to 100 nM
- IC50 ([2]; read-out: Lck IC50 nM Range*): > 1000 nM

Compound: CN1CCN(C2(c3ccc(-c4cc(-c5ccc6c(c5)CCNC6=O)c(N)nc4F)cc3)CC2)CC1 [I-260, 6-(2-amino-6-fluoro-5-(4-(1-(4-methylpiperazin-1-yl)cyclopropyl)phenyl)pyridin-3-yl)-3,4-dihydroisoquinolin-1(2H)-one]
- IC50 [1]: 11 to 100 nM
- IC50 ([2]; read-out: Lck IC50 nM Range*): > 1000 nM

Compound: CC(C)N1CCC(Oc2ccc(-c3cc(-c4ccc5c(c4)CCNC5=O)c(N)nc3F)cc2C(F)(F)F)CC1 [I-261, 6-(2-amino-6-fluoro-5-(4-((1-isopropylpiperidin-4-yl)oxy)-3-(trifluoromethyl)phenyl)pyridin-3-yl)-3,4-dihydroisoquinolin-1(2H)-one]
- IC50 [1]: 11 to 100 nM
- IC50 ([2]; read-out: Lck IC50 nM Range*): > 1000 nM

Compound: COCCN1CCC(Oc2ccc(-c3cc(-c4ccc5c(c4)CCNC5=O)c(N)nc3F)cc2C(F)(F)F)CC1 [I-262, 6-(2-amino-6-fluoro-5-(4-((1-(2-methoxyethyl)piperidin-4-yl)oxy)-3-(trifluoromethyl)phenyl)pyridin-3-yl)-3,4-dihydroisoquinolin-1(2H)-one]
- IC50 [1]: 0.1 to 10 nM
- IC50 ([2]; read-out: Lck IC50 nM Range*): > 1000 nM

Compound: CC(C)N1CCN(c2ccc(-c3cc(-c4cc5c(cc4F)C(=O)NCC5)c(N)nc3F)cc2C(F)(F)F)CC1 [I-263, 6-(2-amino-6-fluoro-5-(4-(4-isopropylpiperazin-1-yl)-3-(trifluoromethyl)phenyl)pyridin-3-yl)-7-fluoro-3,4-dihydroisoquinolin-1(2H)-one]
- IC50 [1]: 0.1 to 10 nM
- IC50 ([2]; read-out: Lck IC50 nM Range*): > 1000 nM

Compound: COCCN1CCN(c2ccc(-c3cc(-c4cc5c(cc4F)C(=O)NCC5)c(N)nc3F)cc2C(F)(F)F)CC1 [I-264, 6-(2-amino-6-fluoro-5-(4-(4-(2-methoxyethyl)piperazin-1-yl)-3-(trifluoromethyl)phenyl)pyridin-3-yl)-7-fluoro-3,4-dihydroisoquinolin-1(2H)-one]
- IC50 [1]: 0.1 to 10 nM
- IC50 ([2]; read-out: Lck IC50 nM Range*): > 1000 nM

Compound: Nc1nc(F)c(-c2cccc(CN3CCNCC3)c2)cc1-c1ccc2c(c1)CCNC2=O [I-265, 6-(2-amino-6-fluoro-5-(3-(piperazin-1-ylmethyl)phenyl)pyridin-3-yl)-3,4-dihydroisoquinolin-1(2H)-one formate]
- IC50 [1]: 11 to 100 nM
- IC50 ([2]; read-out: Lck IC50 nM Range*): > 1000 nM

Compound: COCCN1CCc2cc(-c3cc(-c4ccc5c(c4)CCNC5=O)c(N)nc3F)ccc2C1 [I-266, 6-(2-amino-6-fluoro-5-(2-(2-methoxyethyl)-1,2,3,4-tetrahydroisoquinolin-6-yl)pyridin-3-yl)-3,4-dihydroisoquinolin-1(2H)-one]
- IC50 [1]: 11 to 100 nM
- IC50 ([2]; read-out: Lck IC50 nM Range*): > 1000 nM

Compound: CC(C)N1CCC(Oc2ccc(-c3cc(-c4ccc5c(c4)CCNC5=O)c(N)nc3F)cc2)CC1 [I-267, 6-(2-amino-6-fluoro-5-(4-((1-isopropylpiperidin-4-yl)oxy)phenyl)pyridin-3-yl)-3,4-dihydroisoquinolin-1(2H)-one]
- IC50 [1]: 0.1 to 10 nM
- IC50 ([2]; read-out: Lck IC50 nM Range*): > 1000 nM
